According to paper PMC11863921 (BMC Biology, 2025):
Entries after “also recorded” stand apart in the source; their conditions may differ.

Legend:
[1] = biological target: Acanthaster cf. solaris relaxin family peptide receptor/leucine-rich repeat G protein-coupled receptor 3, N-terminally modified (prolactin signal peptide, FLAG tag) (Acanthaster cf. solaris)
[2] = biological target: Asterias rubens relaxin family peptide receptor/leucine-rich repeat G protein-coupled receptor 3 (isoform X2) (Asterias rubens)
[3] = biological target: modified ArubRXFP/LGR3 (N-terminal region with the predicted internal signal peptide replaced by the prolactin precursor signal peptide) (Asterias rubens)
[4] = biological target: Asterias rubens relaxin family peptide receptor/leucine-rich repeat G protein-coupled receptor 3 (isoform X2) (Asterias rubens); remark: listed apart in the source
ArubRXFP/LGR3 = assay: Luminescence (GFP-aequorin G5A, GqS5) assay in CHO-K1 cells transfected with ArubRXFP/LGR3; type: cell-based, A. rubens; details: for luminescence response at 10^−5 M versus background: basal media as background; for EC50: 10^−14 to 10^−5 M, 35 s, three independent transfections, four-parameter fit, read-out: EC50 for induced luminescence; for luminescence response versus BSA control: 10–5 M, 30 s, one-way ANOVA with Bonferroni (***p < 0.001, *p < 0.1), Fig. S6; for dose-dependent triggering of luminescence: Fig. 6 A, B
Procedure: (§1) ArubRGP1 and ArubRGP2 were tested as ligands for ArubRXFP/LGR3 (isoform X2; XP_033631990.1) and ArubLGR4 (isoform X3; XP_033635731.1) by co-transfection of CHO-K1 cells stably expressing the green fluorescent protein (GFP) – apoaequorin construct G5A [25] with the chimeric G-protein Gqs5, which is a Gq-type protein modified to incorporate Gs-type sequences that enable it to interact with GPCRs that preferentially couple to Gs-type G-proteins. Synthetic ArubRGP1 or ArubRGP2 were initially tested at a concentration of 10^−5 M, comparing with luminescence measured in transfected cells incubated in basal media without the addition of ArubRGP1 or ArubRGP2.
(§2) A. rubens RGP1 and RGP2 (ArubRGP1, ArubRGP2) were custom synthesized with a purity of > 95%, as reported previously. Two genes encoding relaxin receptor-related proteins were identified in A. rubens and, informed by phylogenetic analysis, these were named ArubRXFP/LGR3 and ArubLGR4. Then cDNAs encoding these proteins were custom synthesized with the inclusion of a 5′ partial Kozak translation initiation sequence (GCCACC) and incorporated into the mammalian expression vector pcDNA 3.1( +) (Genscript, Hong Kong) (Additional file 18: Dataset S11). Likewise, a cDNA encoding an N-terminally modified form of ArubRXFP/LGR3 incorporating an N-terminal signal peptide from the bovine prolactin precursor was also synthesized (with codon optimization for mammalian expression) (Genewiz, Takeley, UK) and this is referred to henceforth as ArubRXFP/LGR3(modified) (Additional file 18: Dataset S11). Chinese hamster ovary cells (CHO-K1) stably expressing the calcium-sensitive aequorin fusion protein G5A were used as an expression system. This cell line was supplied by Prof. Gaspar Jékely (University of Heidelberg, Germany) and tested negative for mycoplasma contamination using a MycoAlert PLUS kit (Lonza, Switzerland). The CHO-K1 cells were cultured in a culture medium comprising DMEM/F12, 10% fetal bovine serum, antibiotic–antimycotic, and 20 µg/mol Geneticin G418 sulfate (all purchased from Thermo Fisher scientific, Oxford, UK; cat no. 11039047, 10,082,147, 15,240,062, and 10,131,035, respectively.) When the cells reached 80% confluency, they were co-transfected with plasmids containing cDNAs encoding ArubRXFP/LGR3, ArubRXFP/LGR3(modified), or ArubLGR4 and a plasmid encoding the chimeric G-protein GqS5 (Addgene, Watertown USA), which enables GPCRs that preferentially couple to Gq-type or Gs-type proteins to signal via the phospholipase-C signaling pathway.
AruRGP1 and AruRGP2 were tested as ligands for the A. rubens receptors using luminescence-based assays, which have been described previously. Thus, 48 h after transfection, cells were detached by using PBS buffer (pH7.4; Thermofisher Scientific, Oxford, UK; cat no.10010023) supplemented with a final concentration of 5 mM EDTA pH8.0 (Thermo Fisher Scientific, Oxford, UK; cat no.15575020). Cells were then washed with DMEM/F12 buffer and then incubated with […] coelenterazine-H (Thermo Fisher Scientific, Oxford, UK; cat no. C6780) at room temperature with stirring for 3 h. ArubRGP1 or ArubRGP2 were prepared at concentrations ranging from 10^−14 to 10^−5 M and then were pipetted into 96-well plates (Costar Assay microplate, REF: 3903 or Falcon 96 well microplate, Code: 353,377). A FLUOstar Omega Plate Reader (BMG LABTECH; FLUOstar Omega Series multi-mode microplate reader) with injectors was used to sequentially add transfected CHO-K1 cells to each test well of the microtiter plate and luminescence was recorded over a 35-s period. Luminescence data were integrated over the 35 s measurement period and the mean of the triplicate measurements was calculated. Responses were normalized to the maximum response obtained in each experiment (100% activation) and to luminescence measured with the vehicle media (0% activation) (Additional file 19: Dataset S12). […]

modified ArubRXFP/LGR3 = assay: Luminescence (GFP-aequorin G5A, GqS5) assay in CHO-K1 cells transfected with modified ArubRXFP/LGR3; type: cell-based, A. rubens; details: Fig. 6 C, D
From the text: Thus, modified ArubRXFP/LGR3 was similar in this respect to the modified AsolRXFP/LGR3 protein (Fig. 5).
A. rubens RGP1 and RGP2 (ArubRGP1, ArubRGP2) were custom synthesized with a purity of > 95%, as reported previously. Two genes encoding relaxin receptor-related proteins were identified in A. rubens and, informed by phylogenetic analysis, these were named ArubRXFP/LGR3 and ArubLGR4. Then cDNAs encoding these proteins were custom synthesized with the inclusion of a 5′ partial Kozak translation initiation sequence (GCCACC) and incorporated into the mammalian expression vector pcDNA 3.1( +) (Genscript, Hong Kong) (Additional file 18: Dataset S11). […]
(§3) AruRGP1 and AruRGP2 were tested as ligands for the A. rubens receptors using luminescence-based assays, which have been described previously. […] A FLUOstar Omega Plate Reader (BMG LABTECH; FLUOstar Omega Series multi-mode microplate reader) with injectors was used to sequentially add transfected CHO-K1 cells to each test well of the microtiter plate and luminescence was recorded over a 35-s period. Luminescence data were integrated over the 35 s measurement period and the mean of the triplicate measurements was calculated. Responses were normalized to the maximum response obtained in each experiment (100% activation) and to luminescence measured with the vehicle media (0% activation) (Additional file 19: Dataset S12). […]

ArubLGR4 = assay: Luminescence (GFP-aequorin G5A, GqS5) assay in CHO-K1 cells transfected with ArubLGR4; type: cell-based, A. rubens; details: for luminescence versus basal media: 10^−5 M; for luminescence response: 10^−14 to 10^−5 M, Fig. 6 E, F
Procedure: as §1
as §2, with “The CHO-K1 cells were cultured in a culture medium comprising DMEM/F12, 10% fetal bovine serum, antibiotic–antimycotic, and 20 µg/mol Geneticin G418 sulfate (all purchased from Thermo Fisher scientific, Oxford, UK; cat no. 11039047, 10,082,147, 15,240,062, and 10,131,035, respectively.) When the cells reached 80% confluency, they were co-transfected with plasmids containing cDNAs encoding ArubRXFP/LGR3, ArubRXFP/LGR3(modified), or ArubLGR4 and a plasmid encoding the chimeric G-protein GqS5 (Addgene, Watertown USA), which enables GPCRs that preferentially couple to Gq-type or Gs-type proteins to signal via the phospholipase-C signaling pathway.” left out
as §3

[5] = test system: CHO-K1 cells transfected with an empty pcDNA3.1 + vector; assay: Luminescence (GFP-aequorin G5A, GqS5) assay in CHO-K1 cells transfected with empty pcDNA3.1 vector; type: cell-based, Chinese hamster; details: 10^−14 to 10^−5 M, Fig. 6 G, H
Procedure: as §1, with “ArubRGP2. […]” for “ArubRGP2.”
as §3

| percentage of forskolin-induced cAMP levels (CRE reporter) in CHO-AsolRXFP/LGR3 cells at 10 µM AsolRGP2; no dose-response curve could be fitted (% forskolin response) [1] | EC50 of peptide-induced luminescence (GFP-apoaequorin G5A, chimeric G-protein GqS5) in CHO-K1 cells transfected with ArubRXFP/LGR3, 10^-14 to 10^-5 M [2] | EC50 of peptide-induced luminescence (GFP-apoaequorin G5A, chimeric G-protein GqS5) in CHO-K1 cells transfected with modified ArubRXFP/LGR3 [3] | EC50 of peptide-induced luminescence (GFP-apoaequorin G5A, chimeric G-protein GqS5) in CHO-K1 cells transfected with ArubRXFP/LGR3 [4] | Substance | luminescence response at 10^−5 M versus background (ArubRXFP/LGR3) | EC50 (ArubRXFP/LGR3) | luminescence response versus BSA control (ArubRXFP/LGR3) | dose-dependent triggering of luminescence (ArubRXFP/LGR3) | dose-dependent triggering of luminescence (modified ArubRXFP/LGR3) | luminescence versus basal media (ArubLGR4) | luminescence response (ArubLGR4) | luminescence response [5] |
| --- | --- | --- | --- | --- | --- | --- | --- | --- | --- | --- | --- | --- |
| 12.2 | – | – | – | Acanthaster cf. solaris relaxin-like gonad-stimulating peptide 2 (ligand) | – | – | – | – | – | – | – | – |
| – | 22.5 nM | 110 nM | 25 nM | Asterias rubens relaxin-like gonad-stimulating peptide 1 (ligand) | – | – | – | – | – | – | – | – |
| – | – | – | – | Asterias rubens Relaxin-like gonad-stimulating peptide 2 [ArubRGP2] | approximately twice the background luminescence | 383 nM | significantly higher | trigger dose-dependent luminescence | trigger dose-dependent luminescence | not significantly different | no response; also recorded: do not trigger luminescence | no response; also recorded: do not trigger luminescence |
| – | – | – | – | Asterias rubens Relaxin-like gonad-stimulating peptide 1 [ArubRGP1] | approximately twice the background luminescence | 22.5 nM | significantly higher | trigger dose-dependent luminescence | trigger dose-dependent luminescence | not significantly different | no response; also recorded: do not trigger luminescence | no response; also recorded: do not trigger luminescence |
